In patent publication US20080280837A1, “Biologically Active Compounds with Anti-Angiogenic Properties” (priority 2004, published 2008):

Test: in vitro
Details: human, Caco-2
Description: The Caco-2 assay was performed according to the procedure described in the following cited article [Caco-2 Monolayers in Experimental and Theoretical Predictions of Drug Transport, Artursson P, Palm K, Luthman K., Adv. Drug Deliv. Rev., 2001, 46, 27-43].

COC[C@H]1O[C@H](OCCc2ccccc2)[C@H](NC(=O)CCCN)[C@@H](OCc2ccc3ccccc3c2)[C@@H]1O [Compound 1]
Papp: 1.04 ×10⁻⁶ cm/s
